Measurements reported in publication PMC9640540, “An LH1–RC photocomplex from an extremophilic phototroph provides insight into origins of two photosynthesis proteins” (Communications Biology, 2022).

Biological target: T1, reaction center (RC) of the LH1–RC complex (Rhodopila globiformis, UniProt A0A2S6NEG7+A0A2S6NEP5)
T1 construct: gene CCS01_15140; native LH1-RC core complex purified from chromatophores (LDAO, then DDM); closed LH1 ring; with Reaction center protein H chain; Photosynthetic reaction center cytochrome c subunit
Test: cryo-EM structure, […] Å
Type: binding

T1 sequence (A0A2S6NEG7 1-275): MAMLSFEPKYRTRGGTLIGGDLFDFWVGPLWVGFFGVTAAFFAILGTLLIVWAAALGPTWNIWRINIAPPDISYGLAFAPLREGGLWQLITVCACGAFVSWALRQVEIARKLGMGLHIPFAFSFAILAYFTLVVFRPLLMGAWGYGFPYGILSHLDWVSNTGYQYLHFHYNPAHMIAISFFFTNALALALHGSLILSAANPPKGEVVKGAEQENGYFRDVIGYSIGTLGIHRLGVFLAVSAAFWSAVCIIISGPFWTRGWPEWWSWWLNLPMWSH
T1 sequence (A0A2S6NEP5 1-326): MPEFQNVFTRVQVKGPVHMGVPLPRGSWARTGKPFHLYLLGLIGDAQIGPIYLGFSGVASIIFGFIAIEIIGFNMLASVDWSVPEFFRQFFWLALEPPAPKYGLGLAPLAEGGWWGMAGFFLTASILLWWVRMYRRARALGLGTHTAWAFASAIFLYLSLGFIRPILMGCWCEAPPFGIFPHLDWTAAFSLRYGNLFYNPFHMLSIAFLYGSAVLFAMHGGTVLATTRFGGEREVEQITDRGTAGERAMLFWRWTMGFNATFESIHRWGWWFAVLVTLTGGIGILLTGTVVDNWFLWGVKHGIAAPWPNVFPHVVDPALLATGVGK
T1 sequence (A0A2S6MZS1 1-258 partner): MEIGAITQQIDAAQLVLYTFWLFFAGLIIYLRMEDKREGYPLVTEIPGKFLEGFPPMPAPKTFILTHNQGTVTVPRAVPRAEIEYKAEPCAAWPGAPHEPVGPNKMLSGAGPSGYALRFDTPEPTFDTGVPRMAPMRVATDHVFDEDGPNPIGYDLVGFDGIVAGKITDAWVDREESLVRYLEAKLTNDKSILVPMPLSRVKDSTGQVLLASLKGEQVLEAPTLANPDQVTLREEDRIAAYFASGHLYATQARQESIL
T1 sequence (A0A2S6NEK5 1-344 partner): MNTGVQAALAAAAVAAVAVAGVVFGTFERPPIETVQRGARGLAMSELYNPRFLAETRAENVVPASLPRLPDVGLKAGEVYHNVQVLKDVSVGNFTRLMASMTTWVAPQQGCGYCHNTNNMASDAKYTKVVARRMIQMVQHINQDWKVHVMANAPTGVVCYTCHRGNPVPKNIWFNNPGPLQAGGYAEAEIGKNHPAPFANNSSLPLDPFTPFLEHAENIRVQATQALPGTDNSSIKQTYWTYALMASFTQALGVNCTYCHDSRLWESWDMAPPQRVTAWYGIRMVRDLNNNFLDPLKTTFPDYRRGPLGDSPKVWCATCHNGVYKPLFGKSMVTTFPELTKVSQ

## CC[C@H]1c2cc3[nH]c4c(c3C)C(=O)[C@H](C(=O)OC)c4c3nc(cc4[nH]c(cc(n2)[C@@H]1C)c(C(C)=O)c4C)[C@@H](C)[C@@H]3CCC(=O)OC/C=C(\C)CCC[C@H](C)CCC[C@H](C)CCCC(C)C [BPhe a]
  cryo-EM structure, 2.24 Å: BPhe a, magenta sticks
